The structures appear in SMILES notation.

Our source for the IC50 values is patent publication US20220388964A1 (HiberCell, Inc., priority 2019, published 2022).

In the assay the target is GCN2 (Homo sapiens, UniProt Q9P2K8). Nature of the assay: TR-FRET biochemical assay for inhibition of GCN2 (Example 108, for Examples 73-105).
GCN2, sequence (Q9P2K8 whole entry): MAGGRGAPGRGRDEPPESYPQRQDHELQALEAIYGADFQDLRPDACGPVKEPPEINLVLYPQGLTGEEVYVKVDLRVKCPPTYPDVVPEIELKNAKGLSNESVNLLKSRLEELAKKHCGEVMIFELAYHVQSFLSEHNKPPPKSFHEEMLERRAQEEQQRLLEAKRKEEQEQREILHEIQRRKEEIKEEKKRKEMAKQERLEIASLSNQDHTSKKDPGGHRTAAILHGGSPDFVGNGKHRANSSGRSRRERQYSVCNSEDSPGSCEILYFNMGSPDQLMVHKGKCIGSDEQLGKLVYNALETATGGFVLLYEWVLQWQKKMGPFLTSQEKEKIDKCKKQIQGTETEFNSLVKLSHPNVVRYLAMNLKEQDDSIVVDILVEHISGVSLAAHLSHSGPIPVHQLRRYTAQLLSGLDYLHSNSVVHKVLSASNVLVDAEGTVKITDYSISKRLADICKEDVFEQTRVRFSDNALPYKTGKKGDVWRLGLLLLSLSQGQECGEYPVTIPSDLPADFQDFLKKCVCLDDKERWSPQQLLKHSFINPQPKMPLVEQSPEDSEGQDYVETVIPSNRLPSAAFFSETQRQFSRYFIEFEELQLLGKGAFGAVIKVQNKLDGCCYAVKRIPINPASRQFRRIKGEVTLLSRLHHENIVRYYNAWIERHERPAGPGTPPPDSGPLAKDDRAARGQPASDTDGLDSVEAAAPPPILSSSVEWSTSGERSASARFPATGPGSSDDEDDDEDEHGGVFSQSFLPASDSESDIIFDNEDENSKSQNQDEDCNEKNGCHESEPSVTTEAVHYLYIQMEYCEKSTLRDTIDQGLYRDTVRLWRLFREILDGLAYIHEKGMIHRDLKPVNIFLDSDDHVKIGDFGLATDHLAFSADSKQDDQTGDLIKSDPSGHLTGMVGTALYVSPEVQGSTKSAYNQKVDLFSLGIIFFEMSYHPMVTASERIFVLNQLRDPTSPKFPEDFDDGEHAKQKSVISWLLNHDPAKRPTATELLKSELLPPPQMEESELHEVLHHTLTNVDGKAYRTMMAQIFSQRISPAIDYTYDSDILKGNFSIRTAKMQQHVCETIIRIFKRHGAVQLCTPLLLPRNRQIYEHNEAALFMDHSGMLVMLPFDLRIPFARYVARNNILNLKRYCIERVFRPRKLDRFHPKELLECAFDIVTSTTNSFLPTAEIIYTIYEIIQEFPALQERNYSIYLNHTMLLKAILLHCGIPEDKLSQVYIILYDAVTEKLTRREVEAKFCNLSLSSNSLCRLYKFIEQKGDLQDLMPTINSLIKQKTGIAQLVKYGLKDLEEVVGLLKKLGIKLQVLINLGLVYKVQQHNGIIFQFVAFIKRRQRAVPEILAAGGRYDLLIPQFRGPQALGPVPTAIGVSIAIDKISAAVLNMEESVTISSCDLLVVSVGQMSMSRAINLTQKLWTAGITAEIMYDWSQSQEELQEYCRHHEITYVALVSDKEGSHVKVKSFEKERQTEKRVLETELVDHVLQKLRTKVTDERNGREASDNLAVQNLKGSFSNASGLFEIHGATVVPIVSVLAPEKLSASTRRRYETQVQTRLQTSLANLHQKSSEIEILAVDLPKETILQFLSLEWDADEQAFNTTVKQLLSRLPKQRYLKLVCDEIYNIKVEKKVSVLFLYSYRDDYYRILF

The IC50 is the point on the concentration scale where inhibition reaches its midpoint. The low end stands for higher potency, the high end for lower potency. `COc1ncc(Cl)cc1S(=O)(=O)Nc1ccc(F)c(-c2ccc3c(C(=O)NC4CCCC4O)n[nH]c3c2F)c1F` (stereo not drawn) [Example 87, 6-[3-(5-Chloro-2-methoxypyridine-3-sulfonamido)-2,6-difluorophenyl]-7-fluoro-N-(2-hydroxycyclopentyl)-1H-indazole-3-carboxamide] returned an IC50 of under 500 nM.

As to `C#CC(C)(C)NC(=O)c1n[nH]c2c(F)c(-c3c(F)ccc(NS(=O)(=O)c4cc(Cl)cnc4OC)c3F)ccc12` [Example 89, 6-[3-(5-Chloro-2-methoxypyridine-3-sulfonamido)-2,6-difluorophenyl]-7-fluoro-N-(2-methylbut-3-yn-2-yl)-1H-indazole-3-carboxamide], the IC50 was under 500 nM.

`COc1ncc(Cl)cc1S(=O)(=O)Nc1ccc(F)c(-c2ccc3c(C(=O)NCC4CCOCC4)n[nH]c3c2F)c1F` [Example 82] came in with an IC50 of under 500 nM.

As for `CNC(=O)c1n[nH]c2c(F)c(-c3c(F)ccc(NS(=O)(=O)C4CCCN(C)C4)c3F)ccc12` (stereo not drawn) [Example 77, 6-[2,6-difluoro-3-(1-methylpiperidine-3-sulfonamido)phenyl]-7-fluoro-N-methyl-1H-indazole-3-carboxamide], the concentration for half-maximal inhibition (IC50) fell in the range of 2500 to 10000 nM.

Compound `COc1ncc(Cl)cc1S(=O)(=O)Nc1ccc(F)c(-c2ccc3c(C(=O)NCCN4CCCC4=O)n[nH]c3c2F)c1F` [Example 99, 6-[3-(5-Chloro-2-methoxypyridine-3-sulfonamido)-2,6-difluorophenyl]-7-fluoro-N-[2-(2-oxopyrrolidin-1-yl)ethyl]-1H-indazole-3-carboxamide] registered a half-maximal inhibitory concentration (IC50) of under 500 nM.

`COc1ncc(Cl)cc1S(=O)(=O)Nc1ccc(F)c(-c2ccc3c(C(=O)NCC(F)(F)F)n[nH]c3c2F)c1F` [Example 90, 6-[3-(5-Chloro-2-methoxypyridine-3-sulfonamido)-2,6-difluorophenyl]-7-fluoro-N-(2,2,2-trifluoroethyl)-1H-indazole-3-carboxamide] returned a 50% inhibitory concentration (IC50) of under 500 nM.
